Laboratory results as given in paper PMC3673949, “Small Molecule R1498 as a Well-Tolerated and Orally Active Kinase Inhibitor for Hepatocellular Carcinoma and Gastric Cancer Treatment via Targeting Angiogenesis and Mitosis Pathways” (PLoS ONE, 2013).
Where two headings read alike, the source gives them in different places.

Key:
[1] = test system: BEL-7404 xenograft; experiment: Xenograft efficacy study; type: in vivo, BALB/C nu/nu nude mice
Description: (§3) Tumor cells were inoculated into the right flank of BALB/C nu/nu female nude mice (5∼6 weeks, 16∼18 g, obtained from Sino-British SIPPR/BK Lab. Animal Ltd, Shanghai, China) at optimal density based on our in-house validation study. After the tumor was established and reached 100∼150 mm^3, the mice were randomized into ten mice per group and received treatment according to the schedule. The tumor growth was recorded three times a week with the measurement of length (L) and width (W) by caliper, and calculated as tumor volume (TV, mm^3) = 0.5*L*W*W (mm). […] The tumor regression of individual mouse was defined - the tumor volume at the end was less than the tumor volume when treatment was initiated.

[2] = test system: BEL-7402 cells; experiment: Cell cycle distribution by flow cytometry; type: cell-based, human; conditions: BEL-7402, 10 µM
Description: (§1) DNA content was measured with a FACS-Calibur cytometer (Becton Dickinson, San Jose, CA) and cell cycle distribution was calculated as described previously.

[3] = test system: SGC-7901 cells; experiment: Cell cycle distribution by flow cytometry; type: cell-based, human; conditions: SGC-7901, 10 µM
Description: as §1

[4] = test system: HUVEC; experiment: HUVEC tube formation assay; type: cell-based, human
[5] = test system: hepatocellular carcinoma cell lines; experiment: Cell proliferation assay (CCK-8, 72 h); type: cell-based; conditions: Homo sapiens, hepatocellular carcinoma cell line panel, read-out: overall mean IC50
Description: (§2) Each cell line was seeded in a 96-well tissue culture plate (Corning, NY) at a predetermined density in 180 µL complete medium, attached overnight and treated by compound for another 72 h. Then the medium was discarded and replaced with 10% CCK-8 (Dojindo, Kumamoto, Japan) in complete medium, then incubated the plates for another 2 h. The OD450 was measured with SpectraMAX 190 spectrophotometer (MDS, Sunnyvale, CA). A background absorbance of ODblank was subtracted from all wells.

[6] = test system: gastric cancer cell lines; experiment: Cell proliferation assay (CCK-8, 72 h); type: cell-based; conditions: Homo sapiens, gastric cancer cell line panel, read-out: overall mean IC50
Description: as §2

[7] = test system: nasopharyngeal carcinoma cell lines; experiment: Cell proliferation assay (CCK-8, 72 h); type: cell-based; conditions: Homo sapiens, nasopharyngeal carcinoma cell line panel, read-out: overall mean IC50
Description: as §2

[8] = Single dose pharmacokinetic (SDPK) study; type: in vivo; conditions: for Oral BA: micronized API suspension; for clearance / Vd / half-life: plasma; for clearance / Vd: iv, 5 mg/kg, single dose; for Vd: read-out: Vdss; for half-life: iv 5 mg/kg
Description: Blood samples were collected by retro-orbital puncture at pre-dose and 0.033, 0.083, 0.25,0.5, 1, 2, 4, 6, 8, and 24 hours post-dose. The plasma samples and the dose formulation were stored at −20°C until bioanalysis. The data acquisition and control system were created using Analyst 1.4 software from ABI Inc. The concentrations in plasma below the limit of quantitation (LOQ = 1 ng/mL) were designated as zero. […] For rat, dog and monkey SDPK, the blood samples were collected from jugular vein puncture.

[9] = test system: SGC-7901 xenograft; experiment: Xenograft efficacy study; type: in vivo, BALB/C nu/nu nude mice
Description: as §3

[10] = Metabolite profile in pooled liver microsomes; type: in vitro ADME
Description: Supplementary file pone.0065264.s005.doc: Table S4 Metabolite profiles in pooled liver microsomes. Pooled liver microsomes were incubated with R1498 and the metabolites were identified to predict the most close species to human. (DOC) Click here for additional data file.

[11] = test system: MGC-803 xenograft; experiment: Xenograft efficacy study; type: in vivo, BALB/C nu/nu nude mice; conditions: MGC-803, 25 mg/kg twice a day per oral gavage
Description: as §3

[12] = test system: HUVEC (VEGF 165 stimulated); experiment: VEGF-induced HUVEC proliferation assay; type: cell-based; conditions: Homo sapiens, 0.5% FBS with VEGF 165, 72 h
Description: as §2
In VEGF-induced HUVEC proliferation assay, the HUVECs suspended in 170 µL EGM-2 with 0.5% FBS were seeded and incubated overnight. After the cells attached, 10 µL 1 µg/ml recombinant human VEGF 165 (R&D systems, Minneapolis, MN) was added to each well together with 20 µl compound solutions prepared in EGM-2 with 0.5% FBS. The CCK-8 assay as above was used for determination of cell viability.

[13] = test system: GC and HCC xenografts; experiment: Panel of GC and HCC xenografts, comparison with sorafenib; type: in vivo, BALB/C nu/nu nude mice
Description: as §3

[14] = test system: CD31; experiment: Immunohistochemistry of BEL-7402 tumors, angiogenesis marker; type: in vivo, BALB/C nu/nu nude mice; conditions: BEL-7402 tumors from efficacy study
Description: The 8 µm paraffin embedded tumor tissue slides prepared from tumor of in vivo efficacy studies were heated in a dry oven at 60°C for 1 hour, then deparaffinized and hydrolyzed by Leica autostainer XL ST5010 at room temperature. Antigen retrieval was carried out at 95∼99°C in citrate buffer (0.01 M, pH 6.0) heated by a medical microwave at 92–98°C for 5 min, then cooled down to room temperature. Then peroxidase-blocking reagent (DAKO, DK-2600, Glostrup Denmark) was applied to quench the endogenous peroxidase. The slides were incubated in blocking serum for 20 min, then covered by 100 µL phospho-Aurora A (Thr288) (C39D8) rabbit mAb (CST #3079, 1∶200 in TBS/T) or rabbit anti-human CD31 polyclonal antibody (Santa Cruz Biotech, sc-8306, Santa Cruz, CA, USA; 1∶200 in TBS/T) at 4°C overnight, then incubated in 100 µL DAKO Envision+/HRP, rabbit/mouse after being washed thoroughly with TBS. One hundred micro liters of substrate-chromogenic solution (DAB) were applied to the slides and incubated at room temperature for 10 min. The slides were rinsed gently with tap water for 15 min. Counterstain and dehydration was performed by XL ST5010 at room temperature. Finally, the slides were mounted with Permount mounting medium (Fisher Scientific, Miami, FL).

COc1ccc2c(c1)C(c1ccccc1Cl)=Nc1c(n[nH]c1C)N2 [R1498]
Final TGI% ([1]; BEL-7404, 12.5 mg/kg twice a day per oral gavage, day of study termination (Table S2)): 90% | Body weight changes% ([1]; BEL-7404, 12.5 mg/kg twice a day per oral gavage, before vs after treatment): -1.9% | Tumor Regression ([1]; BEL-7404, 12.5 mg/kg twice a day per oral gavage, mice with regression/group): 0/10 | Final TGI% ([1]; BEL-7404, 3.125 mpk, bid, PO): 47% | Final TGI% ([1]; BEL-7404, 6.25 mpk, bid, PO): 67% | cells with >4N DNA content ([2]; control 6.7%): 17.6% | cells in G2/M phases ([2]; control 25.6%): 57.0% | cells with >4N DNA content (polyploid cells) ([3]; control 3.1%): 21.6% | cells in G2/M phases ([3]; control 25.2%): 75.5% | HUVEC proliferation under tube formation treatment condition ([4]; 8 hr exposure, data not shown): didn’t affect HUVEC proliferation | tube formation ([4]; HUVEC on Matrigel, 3 µM, 8 h, vs DMSO): formed fewer intact tube meshes | IC50 [5]: 7.81 µM | IC50 [6]: 7.55 µM | IC50 [7]: 30.1 µM | Oral BA ([8]; Dog, 50-100 mg/kg): 32-45 (50-100 mg/kg) % | Oral BA ([8]; Monkey, 12.5 mg/kg): 4 (12.5 mg/kg) % | Oral BA ([8]; Rat, 25-400 mg/kg): 9-44 (25-400 mg/kg) % | clearance ([8]; Dog): 1.9 mL/min/kg | Vd ([8]; Dog): 2.7 L/kg | clearance ([8]; Monkey): 25.3 mL/min/kg | Vd ([8]; Monkey): 2.1 L/kg | clearance ([8]; Rat): 5.6 mL/min/kg | Vd ([8]; Rat): 1.6 L/kg | half-life ([8]; Dog): 16.8 h | half-life ([8]; Monkey): 1.5 h | half-life ([8]; Rat): 3.2 h | Final TGI% ([9]; SGC-7901, 25 mg/kg twice a day per oral gavage, day of study termination (Table S2)): 100% | Body weight changes% ([9]; SGC-7901, 25 mg/kg twice a day per oral gavage, before vs after treatment): 2% | Tumor Regression ([9]; SGC-7901, 25 mg/kg twice a day per oral gavage, mice with regression/group): 5/10 | Final TGI% ([9]; SGC-7901, 6.25 mpk, bid, PO): 69% | Final TGI% ([9]; SGC-7901, 12.5 mpk, bid, PO): 83% | Parent (M0) ([10]; Dog pooled liver microsomes): 99.0 | Total M% ([10]; Dog pooled liver microsomes): 1.0% | Parent (M0) ([10]; Human pooled liver microsomes): 91.9 | Total M% ([10]; Human pooled liver microsomes): 8.1% | Parent (M0) ([10]; Monkey pooled liver microsomes): 43.3 | Total M% ([10]; Monkey pooled liver microsomes): 56.7% | Parent (M0) ([10]; Mouse pooled liver microsomes): 94.8 | Total M% ([10]; Mouse pooled liver microsomes): 5.2% | Parent (M0) ([10]; Rat pooled liver microsomes): 90.8 | Total M% ([10]; Rat pooled liver microsomes): 9.2% | Final TGI% ([11]; day of study termination): 99% | Body weight changes% ([11]; before vs after treatment): 14% | Tumor Regression ([11]; mice with regression/group): 5/10 | IC50 [12]: 0.089 µM | tumor growth inhibition ([13]; all test models (GC and HCC xenografts)): > 80% | TGI% over TGI% of sorafenib ([13]; gastric cancer xenografts, same schedule): 2–12% | TGI% more than TGI% of sorafenib ([13]; hepatocarcinoma xenografts, same schedule): 10–19% | CD31 staining in tumors [14]: decreased in a dose-dependent manner
